Earlier results as cited in patent publication US20260297035A1, “PROTEIN KINASE INHIBITORS AND USES THEREOF” (DELiver Therapeutics, Inc., priority 2023, published 2026).

Columns and labels:
JAK3 = details: role: cofactor; peptide substrate Tyr 06; read-out: ATP Km app; cited from earlier work
TNK1 = details: role: cofactor; peptide substrate Ser/Thr 13; read-out: ATP Km app; cited from earlier work
TYK2 = details: role: cofactor; peptide substrate Tyr 03; read-out: ATP Km app; cited from earlier work
JAK2 = details: role: cofactor; peptide substrate Tyr 06; read-out: ATP Km app; cited from earlier work
ITK = details: role: cofactor; peptide substrate Tyr 01; read-out: ATP Km app; cited from earlier work
JAK1 = details: role: cofactor; peptide substrate Tyr 06; read-out: ATP Km app; cited from earlier work
NTRK3 (TRKC) = details: role: cofactor; peptide substrate Tyr 01; read-out: ATP Km app; cited from earlier work
SRC-N1 = details: role: cofactor; peptide substrate Tyr 02; read-out: ATP Km app; cited from earlier work
AURKA (Aurora A) = details: role: cofactor; peptide substrate Ser/Thr 01; read-out: ATP Km app; cited from earlier work
ABL2 (Arg) = details: role: cofactor; peptide substrate Tyr 02; read-out: ATP Km app; cited from earlier work
LCK = details: role: cofactor; peptide substrate Tyr 02; read-out: ATP Km app; cited from earlier work
ABL1 Y253F = details: role: cofactor; peptide substrate Tyr 02; read-out: ATP Km app; cited from earlier work
ABL1 E255K = details: role: cofactor; peptide substrate Tyr 02; read-out: ATP Km app; cited from earlier work
ABL1 T315I = target: T1, ABL1 T315I (Homo sapiens, UniProt P00519, T315I); details: role: cofactor; peptide substrate Tyr 02; read-out: ATP Km app; cited from earlier work
T1 construct: The ABL1 variant polypeptides utilized contained the same polypeptide as the “isoahABL1(wt)” polypeptide except that each contained one corresponding amino acid substitution

BMX = details: role: cofactor; peptide substrate Tyr 01; read-out: ATP Km app; cited from earlier work
NTRK1 (TRKA) = details: role: cofactor; peptide substrate Tyr 01; read-out: ATP Km app; cited from earlier work
PTK2B (FAK2) = details: role: cofactor; peptide substrate Tyr 01; read-out: ATP Km app; cited from earlier work
RET-V804E = details: role: cofactor; peptide substrate Tyr 04; read-out: ATP Km app; cited from earlier work
RET-Y791F = details: role: cofactor; peptide substrate Tyr 02; read-out: ATP Km app; cited from earlier work
RET-S891A = details: role: cofactor; peptide substrate Tyr 06; read-out: ATP Km app; cited from earlier work
ROS1 = details: role: cofactor; peptide substrate Tyr 01; read-out: ATP Km app; cited from earlier work
NTRK2 (TRKB) = details: role: cofactor; peptide substrate Tyr 01; read-out: ATP Km app; cited from earlier work
ABL1 F317L = details: role: cofactor; peptide substrate Tyr 02; read-out: ATP Km app; cited from earlier work
RET-A883F = details: role: cofactor; peptide substrate Tyr 04; read-out: ATP Km app; cited from earlier work
RET-V804L = details: role: cofactor; peptide substrate Tyr 02; read-out: ATP Km app; cited from earlier work
EPHA8 = details: role: cofactor; peptide substrate Tyr 02; read-out: ATP Km app; cited from earlier work
BTK = details: role: cofactor; peptide substrate Tyr 01; read-out: ATP Km app; cited from earlier work
RET = details: role: cofactor; peptide substrate Tyr 02; read-out: ATP Km app; cited from earlier work
EPHA2 = details: role: cofactor; peptide substrate Tyr 01; read-out: ATP Km app; cited from earlier work
ABL1 F317I = details: role: cofactor; peptide substrate Tyr 02; read-out: ATP Km app; cited from earlier work
AURKC (Aurora C) = details: role: cofactor; peptide substrate Ser/Thr 19; read-out: ATP Km app; cited from earlier work
EPHB1 = details: role: cofactor; peptide substrate Tyr 02; read-out: ATP Km app; cited from earlier work
SRC = details: role: cofactor; peptide substrate Tyr 02; read-out: ATP Km app; cited from earlier work
AURKB (Aurora B) = details: role: cofactor; peptide substrate Ser/Thr 01; read-out: ATP Km app; cited from earlier work
EPHA1 = details: role: cofactor; peptide substrate Tyr 02; read-out: ATP Km app; cited from earlier work
EPHA5 = details: role: cofactor; peptide substrate Tyr 01; read-out: ATP Km app; cited from earlier work
ABL1(wt) = ABL1(wt) (Homo sapiens, UniProt P00519); details: role: cofactor; peptide substrate Tyr 02; read-out: ATP Km app; cited from earlier work
EPHB2 = details: role: cofactor; peptide substrate Tyr 02; read-out: ATP Km app; cited from earlier work
ABL1 G250E = details: role: cofactor; peptide substrate Tyr 02; read-out: ATP Km app; cited from earlier work
TXK = details: role: cofactor; peptide substrate Tyr 06; read-out: ATP Km app; cited from earlier work

Nc1ncnc2c1ncn2[C@@H]1O[C@H](COP(=O)(O)OP(=O)(O)OP(=O)(O)O)[C@@H](O)[C@H]1O [ATP]
Km (JAK3): 14 µM | Km (TNK1): 237 µM | Km (TYK2): 23 µM | Km (JAK2): 31 µM | Km (ITK): 5.6 µM | Km (JAK1): 87 µM | Km (NTRK3 (TRKC)): 54 µM | Km (SRC-N1): 50 µM | Km (AURKA (Aurora A)): 10 µM | Km (ABL2 (Arg)): 30 µM | Km (LCK): 45 µM | Km (ABL1 Y253F): 11.8 µM | Km (ABL1 E255K): 4.2 µM | Km (ABL1 T315I): 2.8 µM | Km (BMX): 107 µM | Km (NTRK1 (TRKA)): 425 µM | Km (PTK2B (FAK2)): 5 µM | Km (RET-V804E): 50 µM | Km (RET-Y791F): 12 µM | Km (RET-S891A): 8 µM | Km (ROS1): 61.4 µM | Km (NTRK2 (TRKB)): 22 µM | Km (ABL1 F317L): 14 µM | Km (RET-A883F): 10 µM | Km (RET-V804L): 5 µM | Km (EPHA8): 123 µM | Km (BTK): 36 µM | Km (RET): 11 µM | Km (EPHA2): 65.4 µM | Km (ABL1 F317I): 15 µM | Km (AURKC (Aurora C)): 26 µM | Km (EPHB1): 61.4 µM | Km (SRC): 50 µM | Km (AURKB (Aurora B)): 81 µM | Km (EPHA1): 18.5 µM | Km (EPHA5): 129 µM | Km (ABL1(wt)): 12 µM | Km (EPHB2): 66 µM | Km (ABL1 G250E): 5.4 µM | Km (TXK): 96 µM
